Where two headings read alike, the source gives them in different places.
Experiments:
Assay in all cases: Test D pre-/postemergence plant response
Format in all cases: in vivo
[1] = test system: morningglory (Ipomoea coccinea); settings: Ipomoea; for pest or weed control at 16 g/ha: 16 g ai/ha; for pest or weed control at 31 g/ha: 31 g ai/ha; for pest or weed control at 62 g/ha: 62 g ai/ha; for pest or weed control at 125 g/ha: 125 g ai/ha
Text: (§1) Seeds of plant species selected from blackgrass (Alopecurus myosuroides), Italian ryegrass (Lolium multiflorum), winter wheat (Triticum aestivum), galium (catchweed bedstraw, Galium aparine), corn (Zea mays), large (Lg) crabgrass (Digitaria sanguinalis), giant foxtail (Setaria faberii), johnsongrass (Sorghum halepense), lambsquarters (Chenopodium album), morningglory (Ipomoea coccinea), yellow nutsedge (Cyperus esculentus), pigweed (Amaranthus retroflexus), ragweed (common ragweed, Ambrosia elatior), soybean (Glycine max), bamyardgrass (Echinochloa crus-galli), oilseed rape (Brassica napus), waterhemp (common waterhemp, Amaranthus rudis), and velvetleaf (Abutilon theophrasti) were planted into a blend of loam soil and sand and treated preemergence with test chemicals formulated in a non-phytotoxic solvent mixture which included a surfactant. At the same time, plants selected from these crop and weed species and also kochia (Kochia scoparia), wild oat (Avena fatua), and chickweed (common chickweed, Stellaria media) were planted in pots containing Redi-Earth® planting medium (Scotts Company, 14111 Scottslawn Road, Marysville, Ohio 43041) comprising spaghnum peat moss, vermiculite, wetting agent and starter nutrients and treated with postemergence applications of test chemicals formulated in the same manner. Plants ranged in height from 2 to 18 cm (1- to 4-leaf stage) for postemergence treatments. Treated plants and controls were maintained in a greenhouse for 13 to 15 days, after which time all species were compared to controls and visually evaluated. Plant response ratings, summarized in Table D, are based on a scale of 0 to 100 where 0 is no effect and 100 is complete control. A dash (-) response means no test result.

[2] = test system: pigweed (Amaranthus retroflexus); settings: Amaranthus retroflexus; for pest or weed control at 16 g/ha: 16 g ai/ha; for pest or weed control at 31 g/ha: 31 g ai/ha; for pest or weed control at 62 g/ha: 62 g ai/ha; for pest or weed control at 125 g/ha: 125 g ai/ha
Text: as §1

[3] = test system: ragweed (common ragweed, Ambrosia elatior); settings: Ambrosia artemisiifolia; for pest or weed control at 16 g/ha: 16 g ai/ha; for pest or weed control at 31 g/ha: 31 g ai/ha; for pest or weed control at 62 g/ha: 62 g ai/ha; for pest or weed control at 125 g/ha: 125 g ai/ha
Text: as §1

[4] = test system: soybean (Glycine max); settings: Glycine max; for plant injury at 16 g/ha: 16 g ai/ha; for plant injury at 31 g/ha: 31 g ai/ha; for plant injury at 62 g/ha: 62 g ai/ha; for plant injury at 125 g/ha: 125 g ai/ha
Text: as §1

[5] = test system: waterhemp (common waterhemp, Amaranthus rudis); settings: Amaranthus tuberculatus; for pest or weed control at 16 g/ha: 16 g ai/ha; for pest or weed control at 31 g/ha: 31 g ai/ha; for pest or weed control at 62 g/ha: 62 g ai/ha; for pest or weed control at 125 g/ha: 125 g ai/ha
Text: as §1

[6] = test system: yellow nutsedge (Cyperus esculentus); settings: Cyperus; for pest or weed control at 16 g/ha: 16 g ai/ha; for pest or weed control at 31 g/ha: 31 g ai/ha; for pest or weed control at 62 g/ha: 62 g ai/ha; for pest or weed control at 125 g/ha: 125 g ai/ha
Text: as §1

[7] = post-emergence, Postemergence, scale 0 to 100 (0 no effect, 100 complete control), read-out: Morningglory plant response rating
[8] = post-emergence, Postemergence, scale 0 to 100, 0 no effect, 100 complete control, read-out: Plant response rating, Morningglory
[9] = pre-emergence, Preemergence, scale 0 to 100 (0 no effect, 100 complete control), read-out: Plant response rating, Morningglory
[10] = post-emergence, Postemergence, scale 0 to 100 (0 no effect, 100 complete control), read-out: Pigweed plant response rating
[11] = post-emergence, Postemergence, scale 0 to 100, 0 no effect, 100 complete control, read-out: Plant response rating, Pigweed
[12] = pre-emergence, Preemergence, scale 0 to 100 (0 no effect, 100 complete control), read-out: Plant response rating, Pigweed
[13] = post-emergence, Postemergence, scale 0 to 100 (0 no effect, 100 complete control), read-out: Ragweed plant response rating
[14] = post-emergence, Postemergence, scale 0 to 100, 0 no effect, 100 complete control, read-out: Plant response rating, Ragweed
[15] = pre-emergence, Preemergence, scale 0 to 100 (0 no effect, 100 complete control), read-out: Plant response rating, Ragweed
[16] = post-emergence, Postemergence, scale 0 to 100 (0 no effect, 100 complete control), read-out: Soybean plant response rating
[17] = post-emergence, Postemergence, scale 0 to 100, 0 no effect, 100 complete control, read-out: Plant response rating, Soybean
[18] = pre-emergence, Preemergence, scale 0 to 100 (0 no effect, 100 complete control), read-out: Plant response rating, Soybean
[19] = post-emergence, Postemergence, scale 0 to 100 (0 no effect, 100 complete control), read-out: Waterhemp plant response rating
[20] = post-emergence, Postemergence, scale 0 to 100, 0 no effect, 100 complete control, read-out: Plant response rating, Waterhemp
[21] = pre-emergence, Preemergence, scale 0 to 100 (0 no effect, 100 complete control), read-out: Plant response rating, Waterhemp
[22] = post-emergence, Postemergence, scale 0 to 100 (0 no effect, 100 complete control), read-out: Nutsedge, Yellow plant response rating
[23] = post-emergence, Postemergence, scale 0 to 100, 0 no effect, 100 complete control, read-out: Plant response rating, Nutsedge, Yellow
[24] = pre-emergence, Preemergence, scale 0 to 100 (0 no effect, 100 complete control), read-out: Plant response rating, Nutsedge, Yellow

## Fc1cccc(Oc2ncc(Cl)cn2)c1-c1cc(C(F)F)on1 [Compound 55, 5-chloro-2-[2-[5-(difluoromethyl)-3-isoxazolyl]-3-fluorophenoxy]pyrimidine]
[1]; [7]
  pest or weed control at 16 g/ha: 70%
  pest or weed control at 31 g/ha: 70%
[1]; [8]
  pest or weed control at 62 g/ha: 80%
  pest or weed control at 125 g/ha: 85%
[1]; pre-emergence, Preemergence, read-out: Plant response rating (scale 0 to 100), Morningglory
  pest or weed control at 125 g/ha: 100%
[1]; [9]
  pest or weed control at 16 g/ha: 10%
  pest or weed control at 31 g/ha: 50%
  pest or weed control at 62 g/ha: 100%
[2]; [10]
  pest or weed control at 16 g/ha: 85%
  pest or weed control at 31 g/ha: 85%
[2]; [11]
  pest or weed control at 62 g/ha: 98%
  pest or weed control at 125 g/ha: 100%
[2]; pre-emergence, Preemergence, read-out: Plant response rating (scale 0 to 100), Pigweed
  pest or weed control at 125 g/ha: 100%
[2]; [12]
  pest or weed control at 16 g/ha: 100%
  pest or weed control at 31 g/ha: 100%
  pest or weed control at 62 g/ha: 100%
[3]; [13]
  pest or weed control at 16 g/ha: 25%
  pest or weed control at 31 g/ha: 40%
[3]; [14]
  pest or weed control at 62 g/ha: 65%
  pest or weed control at 125 g/ha: 90%
[3]; pre-emergence, Preemergence, read-out: Plant response rating (scale 0 to 100), Ragweed
  pest or weed control at 125 g/ha: 95%
[3]; [15]
  pest or weed control at 16 g/ha: 70%
  pest or weed control at 31 g/ha: 75%
  pest or weed control at 62 g/ha: 90%
[4]; [16]
  plant injury at 16 g/ha: 65%
  plant injury at 31 g/ha: 75%
[4]; [17]
  plant injury at 62 g/ha: 90%
  plant injury at 125 g/ha: 95%
[4]; pre-emergence, Preemergence, read-out: Plant response rating (scale 0 to 100), Soybean
  plant injury at 125 g/ha: 98%
[4]; [18]
  plant injury at 16 g/ha: 25%
  plant injury at 31 g/ha: 35%
  plant injury at 62 g/ha: 95%
[5]; [19]
  pest or weed control at 16 g/ha: 85%
  pest or weed control at 31 g/ha: 90%
[5]; [20]
  pest or weed control at 62 g/ha: 98%
  pest or weed control at 125 g/ha: 100%
[5]; pre-emergence, Preemergence, read-out: Plant response rating (scale 0 to 100), Waterhemp
  pest or weed control at 125 g/ha: 100%
[5]; [21]
  pest or weed control at 16 g/ha: 100%
  pest or weed control at 31 g/ha: 100%
  pest or weed control at 62 g/ha: 100%
[6]; [22]
  pest or weed control at 16 g/ha: 0%
  pest or weed control at 31 g/ha: 5%
[6]; [23]
  pest or weed control at 62 g/ha: 5%
  pest or weed control at 125 g/ha: 5%
[6]; pre-emergence, Preemergence, read-out: Plant response rating (scale 0 to 100), Nutsedge, Yellow
  pest or weed control at 125 g/ha: 70%
[6]; [24]
  pest or weed control at 16 g/ha: 0%
  pest or weed control at 31 g/ha: 10%
  pest or weed control at 62 g/ha: 55%

Source: US10131652B2, “Pyrimidinyloxy benzene derivatives as herbicides” (E. I. DU PONT DE NEMOURS AND COMPANY, priority 2014, dated 2018)
